Assay results reported in US20160046618A1, “Cyclopropyl Fused Thiazin-2-Amine Compounds as Beta-Secretase Inhibitors and Methods of Use” (AMGEN INC., priority 2014, published 2016).
Where two headings read alike, the source gives them in different places.

Legend:
Recombinant Cat D = Recombinant Cat D (Homo sapiens (Human), UniProt P07339); assay: In vitro enzymatic Cathepsin D (Cat D) FRET assay; type: biochemical; conditions: read-out: IC50 IP (μM) CatD
Summary of the method: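 Cleavage of a 20 nM FRET peptide by CHO-derived Cat D over 1 h at pH 3.5 (citrate buffer with CHAPS, 10% DMSO final). Endpoint fluorescence is read after Tris quench.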

human recombinant BACE2 = human recombinant BACE2 (Homo sapiens (Human), UniProt Q9Y5Z0); assay: In vitro enzymatic BACE2 FRET assay; type: biochemical; conditions: read-out: IC50 IP (μM) BACE2 enzyme
Summary of the method: (§1)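 Ni-NTA-purified recombinant protease incubated with compound; reaction started with 50 nM FRET peptide substrate (fluorophore/quencher flanking the BACE cleavage site) and run 1 h. Stopped with Tris buffer raising pH to neutral; fluorescence read at ex 488/em 590 nm.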

[1] = tested on: Aβ40 in conditioned medium of cells stably expressing Amyloid Precursor Protein (APP); assay: In vitro BACE-1 cell-based assay (Aβ40 sandwich ELISA); conditions: read-out: IC50 IP (μM) BACE1 cell
Summary of the method: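 APP-expressing cells treated 24 h at 37 °C with compound in 10-point dose response (top 100 μM or 10 μM, 0.1% DMSO final). Secreted Aβ40 in conditioned medium quantified by sandwich ELISA (pAb40 capture, biotinylated 6E10 detection, time-resolved europium fluorescence); IC50 from percent inhibition versus concentration.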

human recombinant BACE1 = human recombinant BACE1 (Homo sapiens (Human), UniProt P56817); assay: In vitro enzymatic BACE1 FRET assay; type: biochemical; conditions: read-out: IC50 IP (μM) BACE1 enzyme
Summary of the method: as §1

Sequence of Recombinant Cat D (P07339 65-412): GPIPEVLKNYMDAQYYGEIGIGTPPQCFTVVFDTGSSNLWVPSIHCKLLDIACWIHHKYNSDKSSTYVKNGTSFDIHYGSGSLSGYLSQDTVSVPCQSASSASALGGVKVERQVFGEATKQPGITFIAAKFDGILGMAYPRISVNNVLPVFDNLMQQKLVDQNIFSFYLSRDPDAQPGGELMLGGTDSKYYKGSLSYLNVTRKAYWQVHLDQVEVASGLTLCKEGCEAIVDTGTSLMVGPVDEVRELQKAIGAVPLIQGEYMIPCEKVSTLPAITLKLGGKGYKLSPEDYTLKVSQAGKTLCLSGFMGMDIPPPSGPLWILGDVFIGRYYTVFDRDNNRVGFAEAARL
Sequence of human recombinant BACE1 (P56817 46-501): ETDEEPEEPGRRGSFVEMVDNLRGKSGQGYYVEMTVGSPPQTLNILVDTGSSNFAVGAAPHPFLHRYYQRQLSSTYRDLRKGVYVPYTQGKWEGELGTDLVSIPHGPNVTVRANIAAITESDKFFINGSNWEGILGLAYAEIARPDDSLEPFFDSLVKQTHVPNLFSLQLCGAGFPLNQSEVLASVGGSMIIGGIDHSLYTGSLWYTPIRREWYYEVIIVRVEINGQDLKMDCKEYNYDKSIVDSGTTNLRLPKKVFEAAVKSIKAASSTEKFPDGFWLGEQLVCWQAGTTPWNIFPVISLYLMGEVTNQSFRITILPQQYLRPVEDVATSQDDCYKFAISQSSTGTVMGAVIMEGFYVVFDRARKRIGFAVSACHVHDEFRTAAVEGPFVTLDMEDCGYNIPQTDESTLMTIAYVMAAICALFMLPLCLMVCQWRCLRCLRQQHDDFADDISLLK
Sequence of human recombinant BACE2 (Q9Y5Z0 63-518): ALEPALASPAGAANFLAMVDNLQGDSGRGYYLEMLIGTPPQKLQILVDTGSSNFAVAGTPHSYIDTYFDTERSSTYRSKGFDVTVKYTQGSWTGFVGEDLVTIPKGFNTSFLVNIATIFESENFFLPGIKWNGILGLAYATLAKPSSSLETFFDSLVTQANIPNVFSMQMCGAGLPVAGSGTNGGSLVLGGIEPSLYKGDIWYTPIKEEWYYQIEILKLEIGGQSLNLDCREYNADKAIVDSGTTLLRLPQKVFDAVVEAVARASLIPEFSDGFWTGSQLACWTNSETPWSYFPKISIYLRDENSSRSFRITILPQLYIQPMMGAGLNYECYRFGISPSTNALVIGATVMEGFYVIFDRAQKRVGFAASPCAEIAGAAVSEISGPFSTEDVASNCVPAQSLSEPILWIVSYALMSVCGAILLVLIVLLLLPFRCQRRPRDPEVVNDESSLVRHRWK

| Structure (SMILES) | IC50 (Recombinant Cat D) [µM] | IC50 (human recombinant BACE2) [µM] | IC50 [1] [µM] | IC50 (human recombinant BACE1) [µM] | IC50 (Recombinant Cat D; Cathepsin D FRET enzyme assay) [µM] | IC50 (human recombinant BACE2; BACE2 FRET enzyme assay) [µM] | IC50 ([1]; BACE1 cell-based assay) [µM] | IC50 (human recombinant BACE1; BACE1 FRET enzyme assay) [µM] |
| --- | --- | --- | --- | --- | --- | --- | --- | --- |
| C[C@]1(c2cc(Nc3nccc4[nH]c(=O)cnc34)cnc2F)N=C(N)S[C@H]2C[C@H]21 [Example 638, 5-((5-((1S,5S,6S)-3-amino-5-methyl-2-thia-4-azabicyclo[4.1.0]hept-3-en-5-yl)-6-fluoropyridin-3-yl)amino)pyrido[3,4-b]pyrazin-2(1H)-one] | > 400 | 0.0314 | 0.0517 | 0.0625 |  |  |  |  |
| C#CCOc1cnc2c(Nc3cc(F)c(F)c([C@@]4(C)N=C(N)S[C@@]5(C(N)=O)C[C@H]54)c3)ncnc2c1 [Example 917, (1S,5S,6S)-3-amino-5-(2,3-difluoro-5-((7-(2-propyn-1-yloxy)pyrido[3,2-d]pyrimidin-4-yl)amino)phenyl)-5-methyl-2-thia-4-azabicyclo[4.1.0]hept-3-ene-1-carboxamide] | 373 | 0.0355 | 0.000857 | 0.000633 |  |  |  |  |
| COC(=O)[C@]12C[C@H]1[C@@](C)(c1cc(NC(=O)c3ccc(Cl)cn3)cnc1F)N=C(N)S2 [Example 99, (1S,5S,6S)-methyl 3-amino-5-(5-(5-chloropicolinamido)-2-fluoropyridin-3-yl)-5-methyl-2-thia-4-azabicyclo[4.1.0]hept-3-ene-1-carboxylate] |  |  |  |  | 1130 | 0.00824 | 0.0659 | 0.00659 |
| C#CCOc1cnc(C(=O)Nc2cc(F)c(F)c([C@@]3(C)N=C(N)S[C@H]4C[C@H]43)c2)c(C)n1 [Example 77, N-(3-((1S,5S,6S)-3-amino-5-methyl-2-thia-4-azabicyclo[4.1.0]hept-3-en-5-yl)-4,5-difluorophenyl)-3-methyl-5-(2-propyn-1-yloxy)-2-pyrazinecarboxamide] |  |  |  |  | 949 | 0.0461 | 0.0217 | 0.0047 |
| C[C@]1(c2cc(NC(=O)c3ccc(Cl)cn3)cnc2F)N=C(N)S[C@@]2(C(F)F)C[C@@H]12 [Example 655, N-(5-((1S,5S,6S)-3-amino-1-(difluoromethyl)-5-methyl-2-thia-4-azabicyclo[4.1.0]hept-3-en-5-yl)-6-fluoro-3-pyridinyl)-5-chloro-2-pyridinecarboxamide] | 1720 | < 0.00203 | 0.006 | 0.00455 |  |  |  |  |
| Cc1nnc(COc2cnc3c(Nc4cc(F)c(F)c([C@@]5(C)N=C(N)S[C@@]6(C(F)F)C[C@@H]56)c4)nccc3n2)o1 [Example 877, N-(3-((1S,5S,6S)-3-amino-1-(difluoromethyl)-5-methyl-2-thia-4-azabicyclo[4.1.0]hept-3-en-5-yl)-4,5-difluorophenyl)-2-((5-methyl-1,3,4-oxadiazol-2-yl)methoxy)pyrido[3,4-b]pyrazin-5-amine] | 343 | 0.338 | 0.0294 | 0.011 |  |  |  |  |
| C[C@]1(c2cc(Nc3ncnc4cc(Cl)cnc34)cc(F)c2F)N=C(N)S[C@@]2(CO)C[C@H]21 [Example 92, ((1S,5S,6S)-3-amino-5-(5-((7-chloropyrido[3,2-d]pyrimidin-4-yl)amino)-2,3-difluorophenyl)-5-methyl-2-thia-4-azabicyclo[4.1.0]hept-3-en-1-yl)methanol] |  |  |  |  | 414 | 0.00373 | 0.0102 | 0.0052 |
| NC1=N[C@](CF)(c2cc(NC(=O)c3ccc(Cl)cn3)cc(F)c2F)[C@@H]2C[C@]2(CF)S1 [Example 59, N-(3-((1S,5S,6S)-3-amino-1,5-bis(fluoromethyl)-2-thia-4-azabicyclo[4.1.0]hept-3-en-5-yl)-4,5-difluorophenyl)-5-chloro-2-pyridinecarboxamide] |  |  |  |  | > 400 | < 0.00203 | 0.0229 | 0.00114 |
| C#CCOc1cnc2c(Nc3cc(C(=O)OC)c(F)c([C@@]4(C)N=C(N)S[C@@]5(C(=O)OC)C[C@H]54)c3)nccc2n1 [Example 856, (1S,5S,6S)-methyl 3-amino-5-(2-fluoro-3-(methoxycarbonyl)-5-((2-(prop-2-yn-1-yloxy)pyrido[3,4-b]pyrazin-5-yl)amino)phenyl)-5-methyl-2-thia-4-azabicyclo[4.1.0]hept-3-ene-1-carboxylate] | 116 | 0.657 | 0.249 | 0.071 |  |  |  |  |
| CCOC(=O)/C=C/[C@]12C[C@H]1[C@@](CF)(c1cc(NC(=O)c3ccc(Cl)cn3)ccc1F)N=C(N)S2 [Example 755, (E)-ethyl 3-((1R,5S,6S)-3-amino-5-(5-(5-chloropicolinamido)-2-fluorophenyl)-5-(fluoromethyl)-2-thia-4-azabicyclo[4.1.0]hept-3-en-1-yl)acrylate] | 250 | < 0.00203 | 0.00838 | 0.00147 |  |  |  |  |

More lines, now with the values ahead:

| IC50 (Recombinant Cat D) [µM] | IC50 (human recombinant BACE2) [µM] | IC50 [1] [µM] | IC50 (human recombinant BACE1) [µM] | IC50 (Recombinant Cat D; Cathepsin D FRET enzyme assay) [µM] | IC50 (human recombinant BACE2; BACE2 FRET enzyme assay) [µM] | IC50 ([1]; BACE1 cell-based assay) [µM] | IC50 (human recombinant BACE1; BACE1 FRET enzyme assay) [µM] | Structure (SMILES) |
| --- | --- | --- | --- | --- | --- | --- | --- | --- |
| 648 | 0.0273 | 0.00151 | 0.000935 |  |  |  |  | C#CCOc1cnc2c(Nc3ccc(F)c([C@@]4(CF)N=C(N)S[C@@]5(CC#N)C[C@H]54)c3)nccc2n1 [Example 720, ((1R,5S,6S)-3-amino-5-(fluoromethyl)-5-(2-fluoro-5-((2-(2-propyn-1-yloxy)pyrido[3,4-b]pyrazin-5-yl)amino)phenyl)-2-thia-4-azabicyclo[4.1.0]hept-3-en-1-yl)acetonitrile] |
| 255 | 0.061 | 0.000566 | 0.00048 |  |  |  |  | C#C[C@H](C)Oc1cnc(C(=O)Nc2ccc(F)c([C@@]3(C)N=C(N)S[C@@]4(C(=O)NC5CC5)C[C@H]43)c2)cn1 [Example 993, (1S,5S,6S)-3-amino-N-cyclopropyl-5-(2-fluoro-5-(((5-(((1S)-1-methyl-2-propyn-1-yl)oxy)-2-pyrazinyl)carbonyl)amino)phenyl)-5-methyl-2-thia-4-azabicyclo[4.1.0]hept-3-ene-1-carboxamide] |
| 862 | 0.171 | 0.011 | 0.0014 |  |  |  |  | COC[C@]12C[C@H]1[C@@](C)(c1cc(NC(=O)c3cnc(OCC4CCC4)cn3)ccc1F)N=C(N)S2 [Example 1054, N-(3-((1S,5S,6S)-3-amino-1-(methoxymethyl)-5-methyl-2-thia-4-azabicyclo[4.1.0]hept-3-en-5-yl)-4-fluorophenyl)-5-(cyclobutylmethoxy)-2-pyrazinecarboxamide] |
| 293 | 0.0264 | 0.00305 | 0.0012 |  |  |  |  | C#CCOc1cnc2c(Nc3ccc(F)c([C@@]4(CF)N=C(N)S[C@@]5(/C=C/C(=O)N(C)C)C[C@H]54)c3)ncnc2c1 [Example 776, (2E)-3-((1R,5S,6S)-3-amino-5-(fluoromethyl)-5-(2-fluoro-5-((7-(2-propyn-1-yloxy)pyrido[3,2-d]pyrimidin-4-yl)amino)phenyl)-2-thia-4-azabicyclo[4.1.0]hept-3-en-1-yl)-N,N-dimethyl-2-propenamide] |
|  |  |  |  | 627 | 0.00126 | 0.0917 | 0.00464 | Cc1cc(Cl)cnc1C(=O)Nc1cc(F)c(F)c([C@@]2(CF)N=C(N)S[C@H]3C[C@H]32)c1 [Example 78, N-(3-((1S,5S,6S)-3-amino-5-(fluoromethyl)-2-thia-4-azabicyclo[4.1.0]hept-3-en-5-yl)-4,5-difluorophenyl)-5-chloro-3-methyl-2-pyridinecarboxamide] |
| 434 | 0.114 | 0.0351 | 0.00642 |  |  |  |  | Cc1cc(OCc2ncco2)cnc1C(=O)Nc1ccc(F)c([C@@]2(C)N=C(N)S[C@@]3(C(F)F)C[C@@H]23)c1 [Example 642, N-(3-((1S,5S,6S)-3-amino-1-(difluoromethyl)-5-methyl-2-thia-4-azabicyclo[4.1.0]hept-3-en-5-yl)-4-fluorophenyl)-3-methyl-5-(1,3-oxazol-2-ylmethoxy)-2-pyridinecarboxamide] |
| 587 | 0.0782 | 0.00309 | 0.000943 |  |  |  |  | CNC(=O)[C@]12C[C@H]1[C@@](C)(c1cc(NC(=O)c3cnc(OCC(F)(F)F)cn3)cc(F)c1F)N=C(N)S2 [Example 701, (1S,5S,6S)-3-amino-5-(2,3-difluoro-5-(((5-(2,2,2-trifluoroethoxy)-2-pyrazinyl)carbonyl)amino)phenyl)-N,5-dimethyl-2-thia-4-azabicyclo[4.1.0]hept-3-ene-1-carboxamide] |
| 230 | 0.0323 | 0.101 | 0.00105 |  |  |  |  | COC[C@]12C[C@H]1[C@@](C)(c1cc(NC(=O)c3cnc(OCc4ccccc4)cn3)cc(F)c1F)N=C(N)S2 [Example 1033, N-(3-((1S,5S,6S)-3-amino-1-(methoxymethyl)-5-methyl-2-thia-4-azabicyclo[4.1.0]hept-3-en-5-yl)-4,5-difluorophenyl)-5-(benzyloxy)-2-pyrazinecarboxamide] |
| 352 | 0.517 | 0.0174 | 0.0268 |  |  |  |  | COCCOc1cnc2c(Nc3cc(F)c(F)c([C@@]4(C)N=C(N)S[C@@]5(COC)C[C@H]54)c3)ncnc2c1 [Example 946, N-(3-((1S,5S,6S)-3-amino-1-(methoxymethyl)-5-methyl-2-thia-4-azabicyclo[4.1.0]hept-3-en-5-yl)-4,5-difluorophenyl)-7-(2-methoxyethoxy)pyrido[3,2-d]pyrimidin-4-amine] |
